Columns and labels:
[1] = DRUGMATRIX: Interleukin IL-1 radioligand binding (ligand: [125I] interleukin 1beta); assay type: cell membranes, Membrane; details: nih3t3; Not Active = under 50% inhibition at 10 µM
[2] = biological target: T1, Neuropeptide Y receptor type 1 (Homo sapiens, UniProt P25929); assay type: cell membranes, Membrane; details: sk-n-mc; note: in other assays of this panel Not Active means under 50% inhibition at 10 µM
T1 sequence (P25929 whole entry): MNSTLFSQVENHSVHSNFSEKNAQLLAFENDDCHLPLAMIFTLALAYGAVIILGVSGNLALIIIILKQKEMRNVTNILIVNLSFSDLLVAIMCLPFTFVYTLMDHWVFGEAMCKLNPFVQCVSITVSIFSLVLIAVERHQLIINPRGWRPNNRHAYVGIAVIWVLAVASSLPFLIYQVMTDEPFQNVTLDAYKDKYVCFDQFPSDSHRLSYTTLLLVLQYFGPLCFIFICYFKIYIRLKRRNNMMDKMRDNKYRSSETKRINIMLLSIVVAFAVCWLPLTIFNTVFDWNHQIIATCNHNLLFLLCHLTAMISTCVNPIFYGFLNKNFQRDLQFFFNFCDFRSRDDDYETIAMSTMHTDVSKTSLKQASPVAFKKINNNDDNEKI

Nitric oxide synthase 1 = Nitric oxide synthase 1 (Rattus norvegicus, UniProt P29476); assay type: tissue-based, Cerebellum; note: in other assays of this panel Not Active means under 50% inhibition at 10 µM
Nitric oxide synthase 1, sequence (P29476 whole entry): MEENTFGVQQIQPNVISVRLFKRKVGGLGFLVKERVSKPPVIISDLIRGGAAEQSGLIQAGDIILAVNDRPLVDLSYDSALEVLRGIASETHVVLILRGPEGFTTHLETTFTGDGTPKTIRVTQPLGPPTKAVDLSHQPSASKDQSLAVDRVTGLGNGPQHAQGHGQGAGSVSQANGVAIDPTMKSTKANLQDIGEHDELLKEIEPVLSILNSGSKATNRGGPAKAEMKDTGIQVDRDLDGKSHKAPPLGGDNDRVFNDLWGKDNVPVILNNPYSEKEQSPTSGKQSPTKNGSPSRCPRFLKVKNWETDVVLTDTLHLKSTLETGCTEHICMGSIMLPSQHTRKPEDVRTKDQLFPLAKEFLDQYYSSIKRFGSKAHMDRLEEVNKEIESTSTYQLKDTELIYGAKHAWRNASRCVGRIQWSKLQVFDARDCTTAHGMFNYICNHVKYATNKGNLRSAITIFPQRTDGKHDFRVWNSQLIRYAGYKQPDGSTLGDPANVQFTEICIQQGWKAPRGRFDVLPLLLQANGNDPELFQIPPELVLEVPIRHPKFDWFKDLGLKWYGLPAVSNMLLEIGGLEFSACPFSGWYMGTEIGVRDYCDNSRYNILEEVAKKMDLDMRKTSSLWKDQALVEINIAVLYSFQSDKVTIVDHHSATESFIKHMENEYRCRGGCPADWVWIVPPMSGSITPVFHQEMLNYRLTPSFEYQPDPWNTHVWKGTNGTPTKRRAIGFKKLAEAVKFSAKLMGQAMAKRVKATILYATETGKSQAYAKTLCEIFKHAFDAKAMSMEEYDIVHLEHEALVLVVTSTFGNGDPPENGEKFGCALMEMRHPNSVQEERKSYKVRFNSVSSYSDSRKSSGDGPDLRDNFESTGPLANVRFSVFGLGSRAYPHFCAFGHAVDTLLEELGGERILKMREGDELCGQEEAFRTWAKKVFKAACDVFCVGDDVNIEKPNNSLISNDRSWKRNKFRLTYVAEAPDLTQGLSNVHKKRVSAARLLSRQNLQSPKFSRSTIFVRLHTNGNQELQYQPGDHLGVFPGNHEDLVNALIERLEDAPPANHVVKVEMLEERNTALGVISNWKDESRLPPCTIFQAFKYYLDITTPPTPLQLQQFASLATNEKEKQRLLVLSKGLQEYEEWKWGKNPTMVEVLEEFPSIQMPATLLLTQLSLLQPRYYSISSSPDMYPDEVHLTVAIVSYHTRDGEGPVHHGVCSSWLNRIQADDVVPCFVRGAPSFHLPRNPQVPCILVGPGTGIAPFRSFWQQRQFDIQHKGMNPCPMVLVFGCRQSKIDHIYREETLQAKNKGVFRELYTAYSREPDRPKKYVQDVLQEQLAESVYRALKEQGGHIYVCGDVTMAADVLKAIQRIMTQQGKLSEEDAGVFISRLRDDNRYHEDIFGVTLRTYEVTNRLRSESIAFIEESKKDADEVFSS

[3] = biological target: Protein phosphatase 3 catalytic subunit alpha (Homo sapiens, UniProt Q08209); design: species or system Escherichia coli;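 note: inhibition of calcineurin (PP2B) enzyme activity, measured with DiFMUP as the substrate; in other assays of this panel Not Active means under 50% inhibition at 10 µM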
[4] = biological target: Receptor tyrosine-protein kinase erbB-2 (Homo sapiens, UniProt P04626); experiment: biochemical; assay type: cell-based, Insect cells; details: insect cells;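 note: inhibition of HER2 kinase enzyme activity, measured with Poly(Glu:Tyr) as the phosphorylation substrate; in other assays of this panel Not Active means under 50% inhibition at 10 µM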
Adenosine receptor A1 = biological target: T2, Adenosine receptor A1 (Homo sapiens, UniProt P30542); assay type: cell membranes, CHO, Membrane; details: cho
T2 sequence (P30542 whole entry): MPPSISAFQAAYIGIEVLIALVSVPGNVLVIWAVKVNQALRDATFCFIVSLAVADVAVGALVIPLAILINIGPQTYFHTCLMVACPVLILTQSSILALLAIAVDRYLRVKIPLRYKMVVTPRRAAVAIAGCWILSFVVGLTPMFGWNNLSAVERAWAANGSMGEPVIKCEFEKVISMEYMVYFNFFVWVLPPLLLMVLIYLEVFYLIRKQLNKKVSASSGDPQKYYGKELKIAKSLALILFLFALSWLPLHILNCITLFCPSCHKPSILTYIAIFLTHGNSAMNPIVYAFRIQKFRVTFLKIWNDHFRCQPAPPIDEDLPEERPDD

Adenosine receptor A3 = biological target: T3, Adenosine receptor A3 (Homo sapiens, UniProt P0DMS8); assay type: cell membranes, CHO-K1, Membrane
T3 sequence (P0DMS8 whole entry): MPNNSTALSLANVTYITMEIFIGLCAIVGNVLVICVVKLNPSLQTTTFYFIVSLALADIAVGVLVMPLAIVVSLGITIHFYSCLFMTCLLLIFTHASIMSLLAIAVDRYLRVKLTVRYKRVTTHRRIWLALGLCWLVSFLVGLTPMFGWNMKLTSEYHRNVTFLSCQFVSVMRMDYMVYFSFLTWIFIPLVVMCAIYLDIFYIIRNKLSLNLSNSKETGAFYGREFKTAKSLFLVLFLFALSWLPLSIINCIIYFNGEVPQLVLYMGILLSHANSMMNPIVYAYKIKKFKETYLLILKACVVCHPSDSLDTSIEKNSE

Row | Compound | IC50 [1] | Ki [1] | IC50 [2] | Ki [2] | IC50 (Nitric oxide synthase 1) | Ki (Nitric oxide synthase 1) | IC50 [3] | Ki [3] | IC50 ([4]; read-out: IC50) [µM] | IC50 (Adenosine receptor A1) | Ki (Adenosine receptor A1) | IC50 (Adenosine receptor A3; cho-k1) | Ki (Adenosine receptor A3; cho-k1) | IC50 [4] | IC50 (Adenosine receptor A3; read-out: IC50) [µM] | Ki (Adenosine receptor A3; read-out: Ki) [µM] | Ki [4]
1 | COBALT(II) ACETYLACETONATE | Not Active | Not Active | Not Active | Not Active | Not Active | Not Active | Not Active | Not Active | 3.17 | Not Active | Not Active | Not Active | Not Active |  |  |  | 
2 | Nc1nc(N)nc(NC2CC2)n1 [CYROMAZINE] | Not Active | Not Active | Not Active |  | Not Active |  | Not Active |  |  | Not Active |  | Not Active |  | Not Active |  |  | 
3 | CN(C(=O)CCCOc1ccc2[nH]c(=O)ccc2c1)C1CCCCC1 [CILOSTAMIDE] | Not Active | Not Active | Not Active |  | Not Active |  | Not Active |  |  | Not Active |  | Not Active |  | Not Active |  |  | 
4 | CC(C)(Oc1ccc(C2CC2(Cl)Cl)cc1)C(=O)O (stereo not given) [CIPROFIBRATE] | Not Active | Not Active | Not Active |  | Not Active |  | Not Active |  |  | Not Active |  | Not Active |  | Not Active |  |  | 
5 | Cc1cn[nH]c1 [FOMEPIZOLE] | Not Active | Not Active | Not Active |  | Not Active |  | Not Active |  |  | Not Active |  | Not Active |  | Not Active |  |  | 
6 | CCc1oc2ccccc2c1C(=O)c1cc(Br)c(O)c(Br)c1 [BENZBROMARONE] | Not Active | Not Active | Not Active |  | Not Active |  | Not Active |  |  | Not Active |  |  |  | Not Active | 5.22 | 2.95 | 
7 | CN1C[C@H](C(=O)N[C@]2(C)O[C@@]3(O)[C@@H]4CCCN4C(=O)[C@H](Cc4ccccc4)N3C2=O)C[C@@H]2c3cccc4[nH]cc(c34)C[C@H]21 [DIHYDROERGOTAMINE] | Not Active | Not Active | Not Active |  | Not Active |  | Not Active |  |  | Not Active |  | Not Active |  | Not Active |  |  | 
8 | CNC(=C[N+](=O)[O-])NCCSCc1csc(CN(C)C)n1 [NIZATIDINE] | Not Active | Not Active | Not Active |  | Not Active |  | Not Active |  |  | Not Active |  | Not Active |  | Not Active |  |  | 
9 | CCC[C@@H]1C[C@@H](C(=O)N[C@@H]([C@H]2O[C@H](SC)[C@H](O)[C@@H](O)[C@H]2O)[C@H](C)Cl)N(C)C1 [CLINDAMYCIN] | Not Active | Not Active | Not Active |  | Not Active |  | Not Active |  |  | Not Active |  | Not Active |  | Not Active |  |  | 
10 | CC(=O)O[C@]1(C(C)=O)CC[C@H]2[C@@H]3C=C(Cl)C4=CC(=O)[C@@H]5C[C@@H]5[C@]4(C)[C@H]3CC[C@@]21C [CYPROTERONE ACETATE] | Not Active | Not Active | Not Active |  | Not Active |  | Not Active |  |  | Not Active |  | Not Active |  | Not Active |  |  | 
11 | CN(Cc1cnc2nc(N)nc(N)c2n1)c1ccc(C(=O)N[C@@H](CCC(=O)O)C(=O)O)cc1 [METHOTREXATE] | Not Active | Not Active | Not Active |  | Not Active |  | Not Active |  |  | Not Active |  | Not Active |  | Not Active |  |  | 
12 | C/C=C\c1ccc(O)c(OC)c1 [ISOEUGENOL] | Not Active | Not Active | Not Active |  | Not Active |  | Not Active |  |  | Not Active |  | Not Active |  | Not Active |  |  | 
13 | CC(CCc1ccc(O)cc1)NCCc1ccc(O)c(O)c1 (stereo not given) [DOBUTAMINE] | Not Active | Not Active | Not Active |  | Not Active |  | Not Active |  |  | Not Active |  | Not Active |  | Not Active |  |  | 
14 | Nc1nc(Cl)nc2c1ncn2[C@H]1C[C@H](O)[C@@H](CO)O1 [CLADRIBINE] | Not Active | Not Active | Not Active |  | Not Active |  | Not Active |  |  | Not Active |  | Not Active |  | Not Active |  |  | 
15 | Cc1cccc(Nc2cc(Cl)nc(SCC(=O)O)n2)c1C [PIRINIXIC ACID] | Not Active | Not Active | Not Active |  | Not Active |  | Not Active |  |  | Not Active |  | Not Active |  | Not Active |  |  | 
16 | INSULIN HUMAN | Not Active | Not Active | Not Active | Not Active | Not Active | Not Active | Not Active | Not Active |  | Not Active | Not Active | Not Active | Not Active | Not Active |  |  | Not Active
17 | CCn1cc(C(=O)O)c(=O)c2cc(F)c(N3CCNCC3)nc21 [ENOXACIN] | Not Active | Not Active | Not Active |  | Not Active |  | Not Active |  |  | Not Active |  | Not Active |  | Not Active |  |  | 
18 | O=C(O)c1cc(=O)c2c(OCC(O)COc3cccc4oc(C(=O)O)cc(=O)c34)cccc2o1 [CROMOLYN] | Not Active | Not Active | Not Active |  | Not Active |  | Not Active |  |  | Not Active |  | Not Active |  | Not Active |  |  | 
19 | CC(=O)OCC(CCn1cnc2cnc(N)nc21)COC(C)=O [FAMCICLOVIR] | Not Active | Not Active | Not Active |  | Not Active |  | Not Active |  |  | Not Active |  | Not Active |  | Not Active |  |  | 
20 | O=P1(N(CCCl)CCCl)NCCCO1 (stereo not given) [CYCLOPHOSPHAMIDE ANHYDROUS] | Not Active | Not Active | Not Active |  | Not Active |  | Not Active |  |  | Not Active |  | Not Active |  | Not Active |  |  | 
21 | O=c1cc(-c2ccccc2)oc2ccc3ccccc3c12 [BETA-NAPHTHOFLAVONE] | Not Active | Not Active | Not Active |  | Not Active |  | Not Active |  |  | Not Active |  | Not Active |  | Not Active |  |  | 
22 | CC(C)(Sc1cc(C(C)(C)C)c(O)c(C(C)(C)C)c1)Sc1cc(C(C)(C)C)c(O)c(C(C)(C)C)c1 [PROBUCOL] | Not Active | Not Active | Not Active |  | Not Active |  | Not Active |  |  | Not Active |  | Not Active |  | Not Active |  |  | 
23 | CO[C@@]1(NC(=O)CSCC#N)C(=O)N2C(C(=O)O)=C(CSc3nnnn3C)CS[C@@H]21 [CEFMETAZOLE] | Not Active | Not Active | Not Active |  | Not Active |  | Not Active |  |  | Not Active |  | Not Active |  | Not Active |  |  | 
24 | CC(=O)O[C@]1(C(C)=O)CC[C@H]2[C@@H]3C=C(C)C4=CC(=O)CC[C@]4(C)[C@H]3CC[C@@]21C [MEGESTROL ACETATE] | Not Active | Not Active | Not Active |  | Not Active |  | Not Active |  |  | Not Active |  | Not Active |  | Not Active |  |  | 
25 | COc1cc(CNC(=O)CCCC/C=C/C(C)C)ccc1O [CAPSAICIN] | Not Active | Not Active | Not Active |  | Not Active |  | Not Active |  |  | Not Active |  | Not Active |  | Not Active |  |  | 
26 | CC(C)(C)c1ccc(S(=O)(=O)/C=C/C#N)cc1 [BAY-11-7085] | Not Active | Not Active | Not Active |  | Not Active |  | Not Active |  |  | Not Active |  | Not Active |  | Not Active |  |  | 

— ChEMBL document CHEMBL1909046, “DrugMatrix in vitro pharmacology data”
